US20070003626A1, “Sterile in-situ microcarrier forming gelled polymeric dispersions and processes to manufacture the same” (priority 2004, published 2007)

Assay: Effect of gamma irradiation on paclitaxel stability in various compositions (paclitaxel assay before and after irradiation)
Type: physicochemical
Description: Paclitaxel either as a powder or in solution in different solvents such as DMA, PEG 400, DMA:PEG 400 (25:75% w/w) and in a polymer solution in DMA:PEG 400 (25:75% w/w) was subjected to gamma irradiation sterilization at a dose of 25 KGy and analyzed for paclitaxel content before and after irradiation.

## CC(=O)O[C@H]1C(=O)[C@@]2(C)[C@H]([C@H](OC(=O)c3ccccc3)[C@]3(O)C[C@H](OC(=O)[C@H](O)[C@@H](NC(=O)c4ccccc4)c4ccccc4)C(C)=C1C3(C)C)[C@]1(OC(C)=O)CO[C@@H]1C[C@@H]2O [Paclitaxel]
After gamma irradiation at 25 KGy
  Assay WRT initial, % (percentage remaining after treatment): 94.74%
Paclitaxel content after gamma irradiation at 25 KGy
  Assay, % Post-irradiation: 94.74 ± 2.36%
Paclitaxel content before gamma irradiation
  Assay, % Initial: 100%
